Where “and” joins values, the source holds several entries; their conditions need not be identical. Identical values can stand only once.
Experiments:
[1] = Lipid solubility and water solubility; type: physicochemical; details: compared with the compound of Example 5
SD rats = experiment: Oral glucose tolerance test (OGTT) after continuous administration in rats for 14 days; type: in vivo, rat; details: for blood sugar level of rats (OGTT): 0.009 mg/kg oral gavage, 14 days, OGTT on day 15; for loose stools in the experimental animals: rats, within 48 hours before and after the experiment
Experimental: • Experimental animals: SPF male SD rats; • Compound preparation: an appropriate amount of the compounds of Example 1, Example 2, Example 9, Example 10, and Example 17 were weighed, and uniformly suspended with an appropriate amount of 0.5% CMC-Na solution; • Preparation of glucose solution: an appropriate amount of glucose powder was weighed and dissolved with an appropriate amount of pure water; • Dosage and method of administration: 0.009 mg/kg, oral gavage.
Experimental process: the animals were fed a normal diet with consecutive administration for 14 days, and the glucose tolerance test was performed on day 15, blood glucose was detected before administration (−30 min), before giving glucose (0 min), and 10, 30, 60, and 120 min after giving glucose solution, and the defecation of animals was observed.

human SGLT1 = target: T1, human SGLT1 (Homo sapiens, UniProt P13866); experiment: hSGLT1 inhibitor activity experiment 2: 2-NBDG uptake by HEK293 cells stably expressing human SGLT1; type: cell-based; details: for IC50: 2-NBDG uptake, HEK293 stably expressing human SGLT1, read-out: SGLT1 Inhibitory Activity
T1 construct: expressed in transfected cells
T1 sequence (P13866 1-664): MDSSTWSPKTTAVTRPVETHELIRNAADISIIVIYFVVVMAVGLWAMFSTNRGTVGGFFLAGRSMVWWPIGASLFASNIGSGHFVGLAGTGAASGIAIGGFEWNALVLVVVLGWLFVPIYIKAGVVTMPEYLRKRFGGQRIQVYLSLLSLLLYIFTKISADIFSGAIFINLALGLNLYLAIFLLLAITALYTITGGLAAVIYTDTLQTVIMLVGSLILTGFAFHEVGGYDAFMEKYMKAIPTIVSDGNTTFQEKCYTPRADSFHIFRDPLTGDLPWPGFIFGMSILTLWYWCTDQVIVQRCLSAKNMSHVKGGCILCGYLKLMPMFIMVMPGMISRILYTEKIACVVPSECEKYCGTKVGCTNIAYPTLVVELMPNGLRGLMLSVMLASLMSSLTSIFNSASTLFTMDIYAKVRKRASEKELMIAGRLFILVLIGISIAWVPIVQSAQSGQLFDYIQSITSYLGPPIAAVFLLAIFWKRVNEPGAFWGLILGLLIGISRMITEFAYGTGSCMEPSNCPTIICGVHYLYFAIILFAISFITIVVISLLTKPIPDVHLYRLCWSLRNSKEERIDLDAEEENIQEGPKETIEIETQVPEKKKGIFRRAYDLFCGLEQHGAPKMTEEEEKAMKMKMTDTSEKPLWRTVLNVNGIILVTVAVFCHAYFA
Experimental: Inhibitory activity testing was performed with reference to a similar method described in document [Acta Pharmaceutica Sinica 2017, 52 (6): 897-903; Nature Protocols (2007), 2(3), 753-762; Journal of Biochemical and Biophysical Methods (2005), 64(3), 207-215; Diabetes Technology & Therapeutics (2011), 13(7), 743-775].
In this experiment, the in vitro activity assay was evaluated using the uptake of 2-NBDG (2-Deoxy-2-[(7-nitro-2,1,3-benzoxadiazol-4-yl)amino]-D-glucose, CAS NO: 186689-07-6) by human embryonic kidney epithelial cells (HEK293, stably expressing human SGLT1), and the SGLT1 inhibitory activity of the target compound was determined by measuring its half-maximal inhibitory concentration (IC50).
HEK293 cells that can stably express human SGLT1 gene were inoculated into a 96-well clear-bottom black plate containing DMEM medium. The cells were incubated at 37° C., 5% CO2 in a cell incubator. The medium in the 96-well plate was aspirated, and the plate was treated with low-glucose serum-free DMEM medium, and washed once with non-specific uptake buffer and once with Na^+-dependent uptake buffer. Uptake buffer containing test compound was added to each well of cells, followed by uptake buffer containing 2-NBDG for glucose uptake, and the cell plate was incubated at 37° C., 5% CO2. The compounds were gradiently diluted. The uptake reaction was stopped by removing the culture medium, and after washing the cells with ice-cold uptake buffer, the washing solution was removed. The cells were lysed by adding NaOH, and the content of 2-NBDG in the cells was detected by a fluorescence microplate reader. The protein concentration of the lysate was measured by BCA method, the uptake of 2-NBDG was quantified by fluorescence intensity/protein content, and the obtained data were analyzed using GraphPad Prism to determine the median inhibitory concentration (IC50) of the compound to be tested.

[2] = Pharmacokinetic study in rats; type: in vivo, rat; details: 10 mg/kg, oral gavage, 0-24 hours
Experimental: 5. Pharmacokinetic Study in Rats • Experimental animals: SPF male SD rats; • Dosage and method of administration: 10 mg/kg, oral gavage. • Research compound: Dapagliflozin, the compound of Example 9, the compound of Example 10, the compound of Example 17, and the comparative compound 6;
Test method: Before administration (0), and 1, 4, 8, and 24 hours after administration, 0.2 ml of blood was collected from orbital venous plexus, anticoagulated with heparin, plasma was collected, and the blood drug concentration was determined.

SD mice = experiment: Oral glucose tolerance test (OGTT) after consecutive administration in mice; type: in vivo, mouse; details: for Statistics of loose stools in animals / loose stools (in words): mice
Experimental: • Experimental animals: SPF male SD mice; • Compound preparation: an appropriate amount of the compound of Example 10 was weighed, and uniformly suspended with an appropriate amount of 0.5% CMC-Na solution; • Preparation of glucose solution: an appropriate amount of glucose powder was weighed and dissolved with an appropriate amount of pure water; • Administration and dosage: oral gavage; blank vehicle group, high-dose group (1.5 mg/kg), low-dose group (0.1 mg/kg). Experimental Process: • (1) The mice were fed a high-sugar diet for 6 days, and then grouped (10 mice in each group) to enter the administration stage; • (2) Example compound 10 was administered at 5:00 pm every day from day 1 to day 5, once a day, and then the animals were fed a high-sugar free diet, and the defecation of the animals was observed. • (3) On day 6, oral glucose tolerance test was performed, and glucose solution (2 g/kg) was orally administered. Blood glucose was detected before (0 min) and 10, 30, and 60 min after giving glucose solution, respectively. Experimental Results: • (1) From day 1 to day 5, the observation of animal defecation after continuous administration is summarized as follows: […]

[3] = system: type 2 diabetes mouse model; experiment: In vivo hypoglycemic efficacy experiment combined with sitagliptin; details: 0.01, 0.05, 0.1 mg/kg combined with 20 mg/kg of sitagliptin, STZ and high-fat high-sugar diet mice
Experimental: Model establishment: SPF grade Balb/C male mice were used in this experiment, and the establishment of the type 2 diabetes mouse model was induced by intraperitoneal injection of streptozotocin (STZ) supplemented by high-fat and high-sugar diet. • Group: 10 per group
Administration: normal group, model group, low-dose combined administration group (0.01 mg/kg of the compound of Example 10+20 mg/kg of sitagliptin), medium-dose combined administration group (0.05 mg/kg of the compound of Example 10+20 mg/kg of sitagliptin), high-dose combined administration group (0.1 mg/kg of the compound of Example 10+20 mg/kg of sitagliptin), sitagliptin group (20 mg/kg). The normal group and the model group were given the solvent by gavage.

[4] = system: microorganisms in rat feces; experiment: Intestinal microbial metabolic stability in rat feces suspension; type: in vitro ADME; details: for Percentage of remaining compound: rat feces suspension, 37° C.
Experimental: Methods: The collected rat feces were processed, and the feces suspension was obtained for the determination of metabolic stability. The mixed reaction system consisting of the rat feces suspension and the compound of […] was incubated at 37° C. for 3 h, 6 h, 12 h and 24 h. The compound of Example 10 in the incubation system was analyzed to determine the total amount of remaining compound. Wherein, “+” represents the remaining percentage being: <50%; “++” represents the remaining percentage being: 50% to 70%; “+++” represents the remaining percentage being: 70% to 90%; “++++” means the remaining percentage being: >90%.

Row | SMILES | blood sugar level of rats (OGTT) (SD rats) | loose stools in the experimental animals (SD rats) | activity of inhibiting SGLT1 (in words) (human SGLT1) | IC50 (human SGLT1) [nM] | drug concentration in plasma [2] | further results
1 | CS[C@H]1O[C@@H](c2ccc(C)c(Cc3ccc(CCCC(=O)NC(C)(C)C(=O)NCCN(C)CC(=O)N(C)Cc4cn(C5CC5)nn4)cc3)c2)[C@H](O)[C@@H](O)[C@@H]1O |  |  |  |  |  | lipid solubility [1]: better; water solubility [1]: better
2 | CS[C@H]1O[C@@H](c2ccc(C)c(Cc3ccc(CCCC(=O)NC(C)(C)C(=O)NCCN(C)CC(=O)N4CCCC4)cc3)c2)[C@H](O)[C@@H](O)[C@@H]1O [Example 1] | significantly reduce the blood sugar level | no loose stools were observed | significant activity of inhibiting SGLT1 | 0.78 |  | 
3 | CS[C@H]1O[C@@H](c2ccc(C)c(Cc3ccc(CCCC(=O)NC(C)(C)C(=O)NCCN(C)CC(=O)N(C)C)cc3)c2)[C@H](O)[C@@H](O)[C@@H]1O [Example 2] | significantly reduce the blood sugar level | no loose stools were observed | significant activity of inhibiting SGLT1 | 1.12 |  | 
4 | CS[C@H]1O[C@@H](c2ccc(C)c(Cc3ccc(CCCC(=O)NC(C)(C)C(=O)NCCN(C)CC(=O)N4CCN(C)CC4)cc3)c2)[C@H](O)[C@@H](O)[C@@H]1O [Example 3] |  |  | significant activity of inhibiting SGLT1 | 0.93 |  | 
5 | CS[C@H]1O[C@@H](c2ccc(C)c(Cc3ccc(CCCC(=O)NC(C)(C)C(=O)N4CCN(CC(=O)N5CCCC5)CC4)cc3)c2)[C@H](O)[C@@H](O)[C@@H]1O [Example 4] |  |  | significant activity of inhibiting SGLT1 | 0.87 |  | 
6 | C#CCN(CCNC(=O)C(C)(C)NC(=O)CCCc1ccc(Cc2cc([C@@H]3O[C@H](SC)[C@@H](O)[C@H](O)[C@H]3O)ccc2C)cc1)CC(=O)N1CCCC1 [Example 9] | significantly reduce the blood sugar level | no loose stools were observed | significant activity of inhibiting SGLT1 | 0.53 | did not reach the detection limit | 
7 | C#CCN(C)C(=O)CN(C)CCNC(=O)C(C)(C)NC(=O)CCCc1ccc(Cc2cc([C@@H]3O[C@H](SC)[C@@H](O)[C@H](O)[C@H]3O)ccc2C)cc1 [Example 10] | significantly reduce the blood sugar level | no loose stools were observed | significant activity of inhibiting SGLT1 | 0.37 | did not reach the detection limit | blood glucose level of mice (OGTT) (SD mice; day 6, high (1.5 mg/kg) and low (0.1 mg/kg) dose groups, glucose 2 g/kg): significantly reduce the blood glucose level; Statistics of loose stools in animals (SD mice; high-dose group (1.5 mg/kg), Day 1): only one animal had loose stools and 1/10; Statistics of loose stools in animals (SD mice; high-dose group (1.5 mg/kg), Day 2): 0/10; Statistics of loose stools in animals (SD mice; high-dose group (1.5 mg/kg), Day 3): 0/10; Statistics of loose stools in animals (SD mice; high-dose group (1.5 mg/kg), Day 4): 0/10; Statistics of loose stools in animals (SD mice; high-dose group (1.5 mg/kg), Day 5): 0/10; loose stools (in words) (SD mice; high-dose group (1.5 mg/kg), day 2 to day 5): did not have loose stools; Statistics of loose stools in animals (SD mice; low-dose group (0.1 mg/kg), Day 1): 0/10; Statistics of loose stools in animals (SD mice; low-dose group (0.1 mg/kg), Day 2): 0/10; Statistics of loose stools in animals (SD mice; low-dose group (0.1 mg/kg), Day 3): 0/10; Statistics of loose stools in animals (SD mice; low-dose group (0.1 mg/kg), Day 4): 0/10; Statistics of loose stools in animals (SD mice; low-dose group (0.1 mg/kg), Day 5): 0/10; loose stools (in words) (SD mice; low-dose group (0.1 mg/kg), continuous administration for 5 days): did not have loose stools; blood glucose level of diabetic model animals [3]: significantly reduce the blood glucose level; remaining compound ([4]; incubated with microorganisms in rat feces for about 24 hours): > 70%; Percentage of remaining compound ([4]; incubation 3 h): ++++ (“++++” means the remaining percentage being: >90%); Percentage of remaining compound ([4]; incubation 6 h): +++ (“+++” represents the remaining percentage being: 70% to 90%); Percentage of remaining compound ([4]; incubation 12 h): +++ (“+++” represents the remaining percentage being: 70% to 90%); Percentage of remaining compound ([4]; incubation 24 h): +++ (“+++” represents the remaining percentage being: 70% to 90%)
8 | C#CCN(C)C(=O)CN1CCN(C(=O)C(C)(C)NC(=O)CCCc2ccc(Cc3cc([C@@H]4O[C@H](SC)[C@@H](O)[C@H](O)[C@H]4O)ccc3C)cc2)CC1 [Example 17] | significantly reduce the blood sugar level | no loose stools were observed | significant activity of inhibiting SGLT1 | 0.49 | did not reach the detection limit | 

Source: patent publication US12612427B2, “Aryl glucoside derivative, preparation method therefor and application thereof” (Shanghai Zheye Biotechnology Co. Ltd., priority 2020, dated 2026)
